In ChEMBL document CHEMBL1147166, “Structure-activity relationships of methoctramine-related polyamines as muscarinic antagonist: effect of replacing the inner polymethylene chain with cyclic moieties” (Bioorg Med Chem, 2007):
The source made the active and inactive calls. The rule behind the calls is not given here.

How the values were obtained:
[1] = biological target: T1, Muscarinic acetylcholine receptor M2 (Homo sapiens, UniProt P08172); test: Displacement of [3H] N-methyl-scopolamine chloride from human muscarinic receptor M2 expressed in CHO cells; format: cell-based
T1 sequence (P08172 whole entry): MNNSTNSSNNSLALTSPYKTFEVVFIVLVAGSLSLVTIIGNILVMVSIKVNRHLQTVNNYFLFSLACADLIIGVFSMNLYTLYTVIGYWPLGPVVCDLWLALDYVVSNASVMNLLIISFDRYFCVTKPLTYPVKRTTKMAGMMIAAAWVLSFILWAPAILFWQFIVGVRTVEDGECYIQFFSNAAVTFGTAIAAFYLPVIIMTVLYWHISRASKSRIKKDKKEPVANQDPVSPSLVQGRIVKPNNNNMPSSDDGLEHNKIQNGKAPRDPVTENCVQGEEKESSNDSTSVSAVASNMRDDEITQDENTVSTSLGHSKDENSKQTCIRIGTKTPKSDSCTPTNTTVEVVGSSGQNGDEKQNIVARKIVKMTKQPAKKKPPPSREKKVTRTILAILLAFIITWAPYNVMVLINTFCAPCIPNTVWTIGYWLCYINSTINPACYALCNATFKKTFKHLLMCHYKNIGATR

Mus musculus [2] = test: Antinociceptive activity in mouse assessed as licking latency at 0.1 ug, icv after 15 mins by hot plate method; format: functional
Mus musculus [3] = test: Antinociceptive activity in mouse assessed as licking latency at 0.01 ug, icv after 60 mins by hot plate method; format: functional
[4] = biological target: T2, Muscarinic acetylcholine receptor M4 (Homo sapiens, UniProt P08173); test: Displacement of [3H] N-methyl-scopolamine chloride from human muscarinic receptor M4 expressed in CHO cells; format: cell-based
T2 sequence (P08173 whole entry): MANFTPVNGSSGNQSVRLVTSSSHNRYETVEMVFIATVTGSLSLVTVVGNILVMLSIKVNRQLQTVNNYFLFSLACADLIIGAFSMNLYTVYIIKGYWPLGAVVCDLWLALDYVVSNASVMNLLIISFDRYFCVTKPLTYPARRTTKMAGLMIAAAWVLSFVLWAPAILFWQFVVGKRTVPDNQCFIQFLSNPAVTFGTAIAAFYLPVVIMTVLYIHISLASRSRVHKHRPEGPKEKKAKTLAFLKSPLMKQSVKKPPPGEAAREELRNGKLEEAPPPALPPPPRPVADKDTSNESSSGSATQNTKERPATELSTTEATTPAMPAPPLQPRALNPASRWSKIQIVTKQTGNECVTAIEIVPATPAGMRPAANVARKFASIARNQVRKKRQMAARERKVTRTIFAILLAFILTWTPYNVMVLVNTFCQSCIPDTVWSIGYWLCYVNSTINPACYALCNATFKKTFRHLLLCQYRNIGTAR

Mus musculus [5] = test: Antinociceptive activity in mouse assessed as licking latency at 10 ug, icv after 45 mins by hot plate method; format: functional
Rattus norvegicus = species on record: Rattus norvegicus; test: Increase in Ach release in rat parietal cortex by cerebral microdialysis test; format: functional
[6] = biological target: T3, Muscarinic acetylcholine receptor M4 (Homo sapiens) (UniProt P08173); test: Antagonist potency at muscarinic receptor M4 in rabbit vas deferens; format: functional, tissue-based; details: Oryctolagus cuniculus, target entry is the homologue from another species
T3 sequence (whole entry): T2 sequence (P08173 whole entry)

Mus musculus [7] = test: Antinociceptive activity in mouse assessed as licking latency at 0.01 ug, icv after 30 mins by hot plate method; format: functional
Mus musculus [8] = test: Antinociceptive activity in mouse assessed as licking latency at 1.0 ug, icv after 30 mins by hot plate method; format: functional
Acetylcholinesterase = Acetylcholinesterase (Homo sapiens, UniProt P22303); test: Inhibition of human erythrocyte recombinant AchE after 20 mins
Mus musculus [9] = test: Antinociceptive activity in mouse assessed as licking latency at 0.03 ug, icv after 15 mins by hot plate method; format: functional
Mus musculus [10] = test: Antinociceptive activity in mouse assessed as licking latency at 0.3 ug, icv after 45 mins by hot plate method; format: functional

Chain of Acetylcholinesterase (P22303 whole entry): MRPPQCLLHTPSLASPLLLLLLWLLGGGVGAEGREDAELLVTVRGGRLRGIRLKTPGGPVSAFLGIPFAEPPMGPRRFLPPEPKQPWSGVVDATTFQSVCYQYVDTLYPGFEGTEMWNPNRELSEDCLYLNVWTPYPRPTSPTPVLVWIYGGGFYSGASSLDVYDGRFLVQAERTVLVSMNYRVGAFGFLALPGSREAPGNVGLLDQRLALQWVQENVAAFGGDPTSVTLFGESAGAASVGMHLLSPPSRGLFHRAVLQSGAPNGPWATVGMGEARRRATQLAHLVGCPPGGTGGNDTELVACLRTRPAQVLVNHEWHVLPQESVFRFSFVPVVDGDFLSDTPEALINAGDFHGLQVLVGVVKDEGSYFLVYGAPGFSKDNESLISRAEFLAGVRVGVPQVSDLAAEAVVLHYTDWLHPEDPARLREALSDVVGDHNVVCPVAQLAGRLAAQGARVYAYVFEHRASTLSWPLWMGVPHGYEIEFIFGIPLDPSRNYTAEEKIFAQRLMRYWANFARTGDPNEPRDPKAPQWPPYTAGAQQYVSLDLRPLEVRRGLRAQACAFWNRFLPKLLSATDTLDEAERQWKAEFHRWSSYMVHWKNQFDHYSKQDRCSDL

`COc1ccccc1CNCCCCCCN1CCC(CCC2CCN(CCCCCCNCc3ccccc3OC)CC2)CC1` gave a Ki [1] of 6.03 nM, a Time (Mus musculus [2]) of 24.7 s and a Time (Mus musculus [3]) of 14.2 s. The Ki [4] was 40.7 nM, the Time (Mus musculus [5]) was 17.7 s and the Activity (Rattus norvegicus) was “Active”. It also gave a pKb [6] of 5.56, a Time (Mus musculus [7]) of 17.1 s and a Time (Mus musculus [8]) of 21.3 s. It also gave an IC50 (Acetylcholinesterase) of 1290 nM, a Time (Mus musculus [9]) of 18.6 s and a Time (Mus musculus [10]) of 20.1 s.
